In the supplement of paper PMC10307832:

Columns and labels:
Test in all cases: relative viability (nuclei count vs DMSO), 5 days (fraction); higher = more cells survive
FH535 + Olaparib = compound: CC1=C(C=CC(=C1)[N+](=O)[O-])NS(=O)(=O)C2=C(C=CC(=C2)Cl)Cl [FH535] + O=C(c1cc(Cc2n[nH]c(=O)c3ccccc23)ccc1F)N1CCN(C(=O)C2CC2)CC1 [Olaparib] (partner 8 µM)
Summary of the method: (§1)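 Lung cancer cell lines in 1536-well plates got either a single drug or a fixed anchor-drug dose together with five library-drug doses (not always all listed) in √10 steps, by pin tool, on the day after seeding. Nuclei were counted after 5 days, and relative viability is the treated-to-vehicle ratio of nuclei counts. Values are medians of duplicate plates.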

FH535 + Pemetrexed = compound: CC1=C(C=CC(=C1)[N+](=O)[O-])NS(=O)(=O)C2=C(C=CC(=C2)Cl)Cl [FH535] + Nc1nc2[nH]cc(CCc3ccc(C(=O)N[C@@H](CCC(=O)O)C(=O)O)cc3)c2c(=O)[nH]1 [Pemetrexed] (partner 0.2 µM)
Summary of the method: as §1

FH535 + Palbociclib = compound: CC1=C(C=CC(=C1)[N+](=O)[O-])NS(=O)(=O)C2=C(C=CC(=C2)Cl)Cl [FH535] + CC(=O)c1c(C)c2cnc(Nc3ccc(N4CCNCC4)cn3)nc2n(C2CCCC2)c1=O [Palbociclib] (partner 0.5 µM)
Summary of the method: as §1

FH535 + Phenformin = compound: CC1=C(C=CC(=C1)[N+](=O)[O-])NS(=O)(=O)C2=C(C=CC(=C2)Cl)Cl [FH535] + N=C(N)NC(=N)NCCc1ccccc1 [Phenformin] (partner 250 µM)
Summary of the method: as §1

FH535 + Lapatinib = compound: CC1=C(C=CC(=C1)[N+](=O)[O-])NS(=O)(=O)C2=C(C=CC(=C2)Cl)Cl [FH535] + CS(=O)(=O)CCNCc1ccc(-c2ccc3ncnc(Nc4ccc(OCc5cccc(F)c5)c(Cl)c4)c3c2)o1 [Lapatinib] (partner 2 µM)
Summary of the method: as §1

| Cell Line | relative viability (FH535 + Olaparib; first compound 0.04 µM) | relative viability (FH535 + Olaparib; first compound 0.1265 µM) | relative viability (FH535 + Olaparib; first compound 0.4 µM) | relative viability (FH535 + Olaparib; first compound 1.265 µM) | relative viability (FH535 + Pemetrexed; first compound 0.04 µM) | relative viability (FH535 + Pemetrexed; first compound 0.1265 µM) | relative viability (FH535 + Pemetrexed; first compound 0.4 µM) | relative viability (FH535 + Pemetrexed; first compound 1.265 µM) | relative viability (FH535 + Palbociclib; first compound 0.04 µM) | relative viability (FH535 + Palbociclib; first compound 0.1265 µM) | relative viability (FH535 + Palbociclib; first compound 0.4 µM) | relative viability (FH535 + Palbociclib; first compound 1.265 µM) | relative viability (FH535 + Phenformin; first compound 0.04 µM) | relative viability (FH535 + Phenformin; first compound 0.1265 µM) | relative viability (FH535 + Phenformin; first compound 0.4 µM) | relative viability (FH535 + Phenformin; first compound 1.265 µM) | relative viability (FH535 + Lapatinib; first compound 0.04 µM) | relative viability (FH535 + Lapatinib; first compound 0.1265 µM) | relative viability (FH535 + Lapatinib; first compound 0.4 µM) | relative viability (FH535 + Lapatinib; first compound 1.265 µM) |
| --- | --- | --- | --- | --- | --- | --- | --- | --- | --- | --- | --- | --- | --- | --- | --- | --- | --- | --- | --- | --- |
| LXF-289 | 0.916 | 1.06 | 1.03 | 0.587 | 0.775 | 0.948 | 0.95 | 0.751 | 0.597 | 0.618 | 0.559 | 0.497 | 0.474 | 0.486 | 0.472 | 0.384 | 0.88 | 0.878 | 0.886 | 0.801 |
| NCI-H23 | 0.255 | 0.331 | 0.3 | 0.273 | 0.517 | 0.782 | 0.625 | 0.436 | 0.453 | 0.552 | 0.477 | 0.471 | 0.786 | 0.739 | 0.655 | 0.555 | – | 1.17 | 0.936 | 0.913 |
| NCI-H322M | 0.739 | 0.664 | 0.778 | 0.741 | 0.559 | 0.67 | 0.633 | 0.587 | 0.489 | 0.481 | 0.524 | 0.511 | 0.813 | 0.844 | 0.707 | 0.601 | 0.504 | 0.554 | 0.555 | 0.595 |
| NCI-H358 | 0.558 | 0.611 | 0.589 | 0.635 | 0.178 | 0.16 | 0.169 | 0.16 | 0.121 | 0.129 | 0.129 | 0.134 | 0.256 | 0.327 | 0.265 | 0.153 | 0.406 | 0.422 | 0.441 | 0.388 |
| NCI-H460 | 0.402 | 0.386 | 0.379 | 0.32 | 0.0603 | 0.0608 | 0.0625 | 0.0646 | 0.175 | 0.253 | 0.244 | 0.117 | 0.517 | 0.535 | 0.399 | 0.244 | 0.992 | 1.08 | 1 | 0.575 |
| NCI-H520 | 0.319 | 0.277 | 0.268 | 0.314 | 0.737 | 0.818 | 0.585 | 0.659 | 0.205 | 0.248 | 0.182 | 0.246 | 0.36 | 0.611 | 0.55 | 0.429 | 0.848 | 0.768 | 0.818 | 0.761 |
| NCI-H647 | 0.586 | 0.528 | 0.467 | 0.509 | 0.2 | 0.219 | 0.187 | 0.152 | 0.401 | 0.445 | 0.27 | 0.4 | 0.524 | 0.508 | 0.431 | 0.42 | 0.971 | 1.08 | 0.914 | 0.864 |
| NCI-H650 | 0.384 | 0.341 | 0.369 | 0.249 | 0.926 | 0.956 | 0.915 | 0.68 | 0.282 | 0.35 | 0.332 | 0.266 | 0.411 | 0.417 | 0.388 | 0.289 | 0.718 | 0.886 | 0.703 | 0.68 |
| NCI-H661 | 0.729 | 0.743 | 0.66 | 0.515 | 0.903 | 0.96 | 0.839 | 0.66 | 0.387 | 0.399 | 0.394 | 0.32 | 0.302 | 0.294 | 0.276 | 0.234 | 0.452 | 0.456 | 0.461 | 0.344 |
| NCI-H838 | 0.727 | 0.768 | 0.66 | 0.475 | 0.249 | 0.233 | 0.216 | 0.204 | 0.217 | 0.222 | 0.208 | 0.198 | 0.512 | 0.722 | 0.445 | 0.309 | 0.971 | 0.873 | 0.795 | 0.734 |
| NCI-H1355 | 0.649 | 0.796 | 0.709 | 0.476 | 1.03 | 1.05 | 0.984 | 0.91 | 0.394 | 0.436 | 0.4 | 0.324 | 0.425 | 0.42 | 0.353 | 0.269 | 0.92 | 1.01 | 0.933 | 0.883 |
| NCI-H1395 | 0.491 | 0.46 | 0.437 | 0.414 | 0.768 | 0.854 | 0.829 | 0.773 | 0.599 | 0.735 | 0.63 | 0.561 | 0.443 | 0.448 | 0.396 | 0.348 | 0.768 | 0.968 | 0.964 | 0.555 |
| NCI-H1437 | 0.608 | 0.575 | 0.491 | 0.336 | 0.297 | 0.328 | 0.284 | 0.2 | 0.316 | 0.314 | 0.237 | 0.229 | 0.289 | 0.309 | 0.29 | 0.171 | 0.731 | 0.534 | 0.631 | 0.349 |
| NCI-H1650 | 0.841 | 0.741 | 0.698 | 0.641 | 0.408 | 0.371 | 0.355 | 0.306 | 0.325 | 0.323 | 0.303 | 0.212 | 0.365 | 0.405 | 0.33 | 0.201 | 0.642 | 0.73 | 0.74 | 0.784 |
